Test results as given in patent publication US20240228446A1, “PREPARATION METHOD FOR BICYCLIC COMPOUND AND APPLICATION AS ANTIFUNGAL AGENT” (priority 2021, published 2024).
Values after ≈ are worked out from the molar mass of the structure shown.

Experiments:
[1] = tested on: Aspergillus fumigatus ATCC MYA-4609; experiment: Minimal inhibitory concentration (MIC) test on fungal growth (CLSI M38, Aspergillus); type: cell-based; conditions: lowest concentration inhibiting Aspergillus by 100%, 35° C., 48 hours, RPMI1640; for MIC: Aspergillus fumigatus, read-out: MIC Aspergillus fumigatus ATCC MYA-4609
Procedure: (§1) • RPMI1640 medium: Brand: Gibco, article number: 31800-014 • Sabouraud dextrose agar (SDA): Brand: Hope Bio, article number: HB0253-81 • Voriconazole: Brand: Adamas, article number: 22105A • Amphotericin B: Brand: AbCam, article number: ab141199
(§2) MIC test was conducted in accordance with the guidelines and requirements of CLSI M27 (for yeasts) and M38 (for Aspergillus).
(§3) Strain preparation: The strains were inoculated 1 day in advance by streaking on SDA plates with glycerol strains stored at −80° C. The strains were cultured at 35° C. and 40 to 60% humidity for 18 to 24 hours. Streak inoculation of Aspergillus fumigatus and Cryptococcus neoformans was required to be done 3 days and 2 days in advance, respectively.
(§4) Preparation of culture medium and compounds: The liquid culture medium RPMI was prepared with pure water, and 0.165 mol/L MOPS was added to adjust the pH to 7.0. The mixture was filtered with a 0.22 μm-membrane filter, sterilized, and stored at 4° C. (no more than 3 months). 0.85% physiological saline was sterilized at 121° C. for 30 min and then stored at room temperature (no more than 1 week). The compounds were dissolved in DMSO to 12.8 mg/mL and stored at −20° C.
For Aspergillus, 5 mL of physiological saline was added to cover the mycelium, and the spores were gently scraped off with a spreader. The spore suspension was then transferred to a sterile test tube. An appropriate amount of spore suspension was taken and counted under a microscope using a hemocytometer. Spore concentration was adjusted to approximately 0.4 to 5×10^4 spores/mL using RPMI1640 medium.
(§5) The compound was diluted to the highest 800 μg/mL (or 400 μg/mL) with DMSO, and a 10-step 2-fold gradient dilution was performed, resulting in 11 concentrations. 2 μL of the gradient-diluted compound was transferred to the corresponding wells of a 96-well plate, and then 198 μL of the inoculum was transferred to the test plate. The plate was incubated at 35° C. for 24 hours (Aspergillus fumigatus and Cryptococcus neoformans were incubated for 48 and 72 hours, respectively).
(§6) After the incubation, the growth of the fungi was visually observed. The lowest concentration of the compound that inhibited the growth of yeast by 50% (inhibited Aspergillus by 100%) was defined as the minimum inhibitory concentration (MIC, μg/mL). A magnifying glass or reading at OD530 nm could be used to assist in determining the MIC. Photos were taken of the test plates for record keeping.

[2] = tested on: Candida albicans ATCC MYA-2876; experiment: Minimal inhibitory concentration (MIC) test on fungal growth (CLSI M27, yeasts); type: cell-based; conditions: lowest concentration inhibiting growth of yeast by 50%, 35° C., 24 hours, RPMI1640; for MIC: Candida albicans, read-out: MIC Candida albicans ATCC MYA-2876
Procedure: as §1, §2, §3, §4
For yeast, 3 to 5 colonies were selected from the SDA plate on the day of testing and fully suspended in 5 mL of sterilized 0.85% physiological saline. The turbidity of the bacterial suspension was measured with a turbidimeter, and the turbidity was adjusted to approximately 0.2. The bacterial suspension was 50-fold and 20-fold (1000-fold in total) diluted in RPMI1640 medium, respectively, to serve as the inoculum. The final inoculum concentration was 500 to 2500 CFU/mL.
as §5, §6

| Structure (SMILES) | MIC [1] | MIC [2] | MIC Aspergillus fumigatus ATCC MYA-4609 [1] | MIC Candida albicans ATCC MYA-2876 [2] |
| --- | --- | --- | --- | --- |
| C[C@H](C12CC(c3ccc(OC[C@H](O)C(F)(F)F)cc3)(C1)C2)[C@](O)(Cn1cncn1)c1ccc(F)cc1F (relative stereo) [Compound 125A] | 0.5 µg/mL (≈ 0.955 µM) | ≤ 0.0039 µg/mL | – | – |
| O[C@@](Cn1cncn1)(c1ccc(F)cc1F)C(F)(F)C12CC(c3ccc(OCC(F)(F)F)cc3)(C1)C2 (stereo in doubt) [Compound 2A] | 1 µg/mL (≈ 1.94 µM) | ≤ 0.0039 µg/mL | – | – |
| CC(C12CC(c3ccc(OC[C@H](O)C(F)(F)F)cc3)(C1)C2)C(O)(Cn1cncn1)c1ccc(F)cc1F (stereo in doubt) [Compound 125] | 1 µg/mL (≈ 1.91 µM) | ≤ 0.0039 µg/mL | – | – |
| COc1ccc(C23CC(C(F)(F)[C@](O)(Cn4cnnn4)c4ccc(F)cc4F)(C2)C3)cc1 [Compound 1A] | – | – | 4 µg/mL (≈ 8.92 µM) | 0.0078 µg/mL (≈ 0.0174 µM) |
| COc1ccc(C23CC(C(F)(F)C(O)(Cn4cnnn4)c4ccc(F)cc4F)(C2)C3)cc1 (centres unmarked) [Compound 1] | 8 µg/mL (≈ 17.8 µM) | 0.015 µg/mL (≈ 0.0335 µM) | – | – |
| OC(Cn1cncn1)(c1ccc(F)cc1F)C(F)(F)C12CC(c3ccc(OCC(F)(F)F)cc3)(C1)C2 (centres unmarked) [Compound 2] | 1 µg/mL (≈ 1.94 µM) | 0.0078 µg/mL (≈ 0.0151 µM) | – | – |
| O[C@@](Cn1cnnn1)(c1ccc(F)cc1F)C(F)(F)C12CC(c3ccc(OCC(F)(F)F)cc3)(C1)C2 [Compound 3A] | 1 µg/mL (≈ 1.94 µM) | ≤ 0.0039 µg/mL | – | – |
| OC(Cn1cnnn1)(c1ccc(F)cc1F)C(F)(F)C12CC(c3ccc(OCC(F)(F)F)cc3)(C1)C2 (centres unmarked) [Compound 3] | 2 µg/mL (≈ 3.87 µM) | 0.03 µg/mL (≈ 0.0581 µM) | – | – |
| O[C@](Cn1cnnn1)(c1ccc(Cl)cc1F)C(F)(F)C12CC(c3ccc(OCC(F)(F)F)cc3)(C1)C2 [Compound 7B] | 1 µg/mL (≈ 1.88 µM) | 2 µg/mL (≈ 3.75 µM) | – | – |
| O[C@@](Cn1cncn1)(c1ccc(F)cc1F)C(F)(F)C12CC(C1)C2 [Compound 10A] | 1 µg/mL (≈ 2.93 µM) | ≤ 0.0039 µg/mL | – | – |
| Oc1ccc(C23CC(C(F)(F)[C@](O)(Cn4cncn4)c4ccc(F)cc4F)(C2)C3)cc1 [Compound 21A] | 1 µg/mL (≈ 2.31 µM) | ≤ 0.0039 µg/mL | – | – |
| Oc1ccc(C23CC(C(F)(F)C(O)(Cn4cncn4)c4ccc(F)cc4F)(C2)C3)cc1 (centres unmarked) [Compound 21] | 2 µg/mL (≈ 4.61 µM) | ≤ 0.0039 µg/mL | – | – |
| O[C@@](Cn1cnnn1)(c1ccc(F)cc1F)C(F)(F)C12CC(c3ccc(OCC(F)F)cc3)(C1)C2 [Compound 22A] | 2 µg/mL (≈ 4.01 µM) | 0.0078 µg/mL (≈ 0.0156 µM) | – | – |

Further lines, results first:

| MIC [1] | MIC [2] | MIC Aspergillus fumigatus ATCC MYA-4609 [1] | MIC Candida albicans ATCC MYA-2876 [2] | Structure (SMILES) |
| --- | --- | --- | --- | --- |
| 0.5 µg/mL (≈ 0.917 µM) | ≤ 0.0039 µg/mL | – | – | O[C@H](COc1ccc(C23CC(C(F)(F)[C@](O)(Cn4cncn4)c4ccc(F)cc4F)(C2)C3)cc1)C(F)(F)F (relative stereo) [Compound 132A] |
| 4 µg/mL (≈ 7.14 µM) | ≤ 0.0039 µg/mL | – | – | O[C@H](COc1ccc(C23CC(C(F)(F)[C@](O)(Cn4cnnn4)c4ccc(F)cc4F)(C2)C3)cc1)CC(F)(F)F (relative stereo) [Compound 142A] |
| 4 µg/mL (≈ 7.14 µM) | ≤ 0.0039 µg/mL | – | – | O[C@@H](COc1ccc(C23CC(C(F)(F)[C@](O)(Cn4cnnn4)c4ccc(F)cc4F)(C2)C3)cc1)CC(F)(F)F (relative stereo) [Compound 142B] |
| 2 µg/mL (≈ 3.86 µM) | ≤ 0.0039 µg/mL | – | – | O[C@H](COc1ccc(C23CC(C(F)(F)[C@](O)(Cn4cnnn4)c4ccc(F)cc4F)(C2)C3)cc1)C1CC1 (relative stereo) [Compound 144A] |
| 4 µg/mL (≈ 7.71 µM) | ≤ 0.0039 µg/mL | – | – | O[C@@H](COc1ccc(C23CC(C(F)(F)[C@](O)(Cn4cnnn4)c4ccc(F)cc4F)(C2)C3)cc1)C1CC1 (relative stereo) [Compound 144B] |
| 4 µg/mL (≈ 7.6 µM) | ≤ 0.0039 µg/mL | – | – | CS(=O)(=O)COc1ccc(C23CC(C(F)(F)[C@](O)(Cn4cnnn4)c4ccc(F)cc4F)(C2)C3)cc1 (stereo in doubt) [Compound 131A] |
| 2 µg/mL (≈ 4.01 µM) | ≤ 0.0039 µg/mL | – | – | O[C@@](Cn1cnnn1)(c1ccc(F)cc1F)C(F)(F)C12CC(c3ccc(COC(F)F)cc3)(C1)C2 (stereo in doubt) [Compound 159A] |
| 4 µg/mL (≈ 7.32 µM) | 0.03 µg/mL (≈ 0.0549 µM) | – | – | O[C@H](COc1ccc(C23CC(C(F)(F)C(O)(Cn4cnnn4)c4cc(F)ccc4F)(C2)C3)cc1)C(F)(F)F (stereo in doubt) [Compound 165] |
| 8 µg/mL (≈ 14.6 µM) | 0.06 µg/mL (≈ 0.11 µM) | – | – | O[C@@H](COc1ccc(C23CC(C(F)(F)C(O)(Cn4cnnn4)c4cc(F)ccc4F)(C2)C3)cc1)C(F)(F)F (stereo in doubt) [Compound 166] |
